Laboratory results taken from PMC10907374, “G2019S selective LRRK2 kinase inhibitor abrogates mitochondrial DNA damage” (NPJ Parkinson's Disease, 2024).
Where “and” joins values, the source holds several entries; their conditions need not be identical. Equal values may be shown once. Entries after “also recorded” stand apart in the source; their conditions may differ.

Key:
R1441C LRRK2 cultures = tested on: R1441C LRRK2 cultures; set-up: method as in PMID 37384414; conditions: R1441C LRRK2 cultures ref 71; cited from earlier work
[1] = tested on: heterozygous G2019S LRRK2 PD patient-derived LCLs; set-up: method as in PMID 33057100; conditions: acute treatment (1.5 h) ref 49; cited from earlier work
wild-type HEK293 cells = assay: Mitophagy (Mtphagy dye / Lyso dye live cell imaging) in wild-type HEK293 cells; type: cell-based, human; conditions: 100 nM 2 h pre-treatment; for basal levels of mitophagy: Mitophagy dye intensity or co-localization; for FCCP-stimulated mitophagy: then 20 μM FCCP 3 h
Method: Thirty-five mm cell culture dishes (Cellvis, D35-20-1.5-N) were coated with poly-D-lysine (Sigma-Aldrich, P7280-5MG) for 5 min, washed with cell culture grade water (Sigma-Aldrich, W3500), and allowed to dry for at least 1 h before plating. LRRK2^G2019S/G2019S KI HEK293 and wild-type cells were passaged as described above and plated at 300,000 cells per well on poly-D-lysine-coated dishes. […] Following this, cells were washed three times with serum-free medium, and a working solution of Mtphagy dye (Dojindo, MD-01) was prepared in serum-free medium according to manufacturer protocols. Cultures were incubated with Mtphagy dye for 30 min, followed by three washes with serum-free medium. Complete medium was used to prepare a 20 µM FCCP (Abcam, ab120081) or DMSO control treatment solution, which was used to treat cells for 3 h. Following treatment, cells were then washed 3 times with serum-free medium, and a working solution of Lyso dye (Dojindo, MD-01) was prepared in serum-free medium and used to treat cells for 30 min. Complete medium lacking phenol red was prepared for use in confocal live cell imaging by combining phenol red-free DMEM/F-12 (Fisher Scientific, 21-041-025), FBS (VWR, 97068-085), and penicillin-streptomycin (VWR, 45000-652). Following Lyso dye treatment, cultures were washed three times with phenol red-free medium, followed by adding fresh phenol red-free medium to cell culture dishes. MitoBright LT Deep Red (Dojindo, MT12-12) was diluted in growth medium to prepare a 0.1 μmol/l solution and was used to treat cells for 15 min for total mitochondrial staining. Live cell imaging (5% CO2, 37 °C) was performed using a Zeiss LSM 880 Confocal Laser Scanning Microscope with Zen Black software. On average, ~70 cells were analyzed for each condition per each experimental replicate.
Following imaging, files were processed using Zen Blue software, and TIFF files of each channel were obtained for analysis. ImageJ was used to obtain readouts for image analysis. All images were converted to 8-bit format. For each respective image, the Lyso dye channel was used to create a mask delineating each lysosomal focus as a region of interest (ROI). Thresholding parameters were adjusted between biological replicates as required to ensure that the Lyso dye ROI encompassed all lysosome foci appropriately, and this was used to create a mask. This was then applied to the corresponding Mtphagy dye channel image, allowing collection of Mtphgy fluorescence intensity readouts for each lysosomal focus. Outliers were removed using Prism software (GraphPad) with the coefficient of removal set to 0.2%. Data was thresholded to exclude lysosomes not containing mitochondria by excluding fluorescence values with intensities equal to or below background levels. The number of ROIs remaining after thresholding was used to quantify lysosomes containing fluorescing mitochondria (mitolysosomes). Fluorescence intensity values for all mitolysosomes per condition per biological replicate were averaged to obtain a value of mitophagy fluorescence intensity per mitolysosome. For each replicate, all values of average mitolysosome fluorescence intensity were normalized to wild-type (vehicle treated) levels for the given replicate.

[2] = set-up: method as in PMID 33197196; conditions: cited from earlier work
[3] = biological target: T1, G2019S variant of human LRRK2 (G2019S-LRRK2) (Homo sapiens, UniProt Q5S007, G2019S); assay: LRRK2 pSer1292 autophosphorylation western immunoblot in HEK293 cells stably overexpressing G2019S-LRRK2; type: cell-based; conditions: for decrease in LRRK2 pSer1292 levels: G2019S-LRRK2 cells, 2 h
T1 construct: WT-LRRK2 or G2019S-LRRK2 overexpressing cells show expression of LRRK2 pSer1292 and full-length LRRK2; expressed in transfected cells
T1 sequence (Q5S007 whole entry G2019S): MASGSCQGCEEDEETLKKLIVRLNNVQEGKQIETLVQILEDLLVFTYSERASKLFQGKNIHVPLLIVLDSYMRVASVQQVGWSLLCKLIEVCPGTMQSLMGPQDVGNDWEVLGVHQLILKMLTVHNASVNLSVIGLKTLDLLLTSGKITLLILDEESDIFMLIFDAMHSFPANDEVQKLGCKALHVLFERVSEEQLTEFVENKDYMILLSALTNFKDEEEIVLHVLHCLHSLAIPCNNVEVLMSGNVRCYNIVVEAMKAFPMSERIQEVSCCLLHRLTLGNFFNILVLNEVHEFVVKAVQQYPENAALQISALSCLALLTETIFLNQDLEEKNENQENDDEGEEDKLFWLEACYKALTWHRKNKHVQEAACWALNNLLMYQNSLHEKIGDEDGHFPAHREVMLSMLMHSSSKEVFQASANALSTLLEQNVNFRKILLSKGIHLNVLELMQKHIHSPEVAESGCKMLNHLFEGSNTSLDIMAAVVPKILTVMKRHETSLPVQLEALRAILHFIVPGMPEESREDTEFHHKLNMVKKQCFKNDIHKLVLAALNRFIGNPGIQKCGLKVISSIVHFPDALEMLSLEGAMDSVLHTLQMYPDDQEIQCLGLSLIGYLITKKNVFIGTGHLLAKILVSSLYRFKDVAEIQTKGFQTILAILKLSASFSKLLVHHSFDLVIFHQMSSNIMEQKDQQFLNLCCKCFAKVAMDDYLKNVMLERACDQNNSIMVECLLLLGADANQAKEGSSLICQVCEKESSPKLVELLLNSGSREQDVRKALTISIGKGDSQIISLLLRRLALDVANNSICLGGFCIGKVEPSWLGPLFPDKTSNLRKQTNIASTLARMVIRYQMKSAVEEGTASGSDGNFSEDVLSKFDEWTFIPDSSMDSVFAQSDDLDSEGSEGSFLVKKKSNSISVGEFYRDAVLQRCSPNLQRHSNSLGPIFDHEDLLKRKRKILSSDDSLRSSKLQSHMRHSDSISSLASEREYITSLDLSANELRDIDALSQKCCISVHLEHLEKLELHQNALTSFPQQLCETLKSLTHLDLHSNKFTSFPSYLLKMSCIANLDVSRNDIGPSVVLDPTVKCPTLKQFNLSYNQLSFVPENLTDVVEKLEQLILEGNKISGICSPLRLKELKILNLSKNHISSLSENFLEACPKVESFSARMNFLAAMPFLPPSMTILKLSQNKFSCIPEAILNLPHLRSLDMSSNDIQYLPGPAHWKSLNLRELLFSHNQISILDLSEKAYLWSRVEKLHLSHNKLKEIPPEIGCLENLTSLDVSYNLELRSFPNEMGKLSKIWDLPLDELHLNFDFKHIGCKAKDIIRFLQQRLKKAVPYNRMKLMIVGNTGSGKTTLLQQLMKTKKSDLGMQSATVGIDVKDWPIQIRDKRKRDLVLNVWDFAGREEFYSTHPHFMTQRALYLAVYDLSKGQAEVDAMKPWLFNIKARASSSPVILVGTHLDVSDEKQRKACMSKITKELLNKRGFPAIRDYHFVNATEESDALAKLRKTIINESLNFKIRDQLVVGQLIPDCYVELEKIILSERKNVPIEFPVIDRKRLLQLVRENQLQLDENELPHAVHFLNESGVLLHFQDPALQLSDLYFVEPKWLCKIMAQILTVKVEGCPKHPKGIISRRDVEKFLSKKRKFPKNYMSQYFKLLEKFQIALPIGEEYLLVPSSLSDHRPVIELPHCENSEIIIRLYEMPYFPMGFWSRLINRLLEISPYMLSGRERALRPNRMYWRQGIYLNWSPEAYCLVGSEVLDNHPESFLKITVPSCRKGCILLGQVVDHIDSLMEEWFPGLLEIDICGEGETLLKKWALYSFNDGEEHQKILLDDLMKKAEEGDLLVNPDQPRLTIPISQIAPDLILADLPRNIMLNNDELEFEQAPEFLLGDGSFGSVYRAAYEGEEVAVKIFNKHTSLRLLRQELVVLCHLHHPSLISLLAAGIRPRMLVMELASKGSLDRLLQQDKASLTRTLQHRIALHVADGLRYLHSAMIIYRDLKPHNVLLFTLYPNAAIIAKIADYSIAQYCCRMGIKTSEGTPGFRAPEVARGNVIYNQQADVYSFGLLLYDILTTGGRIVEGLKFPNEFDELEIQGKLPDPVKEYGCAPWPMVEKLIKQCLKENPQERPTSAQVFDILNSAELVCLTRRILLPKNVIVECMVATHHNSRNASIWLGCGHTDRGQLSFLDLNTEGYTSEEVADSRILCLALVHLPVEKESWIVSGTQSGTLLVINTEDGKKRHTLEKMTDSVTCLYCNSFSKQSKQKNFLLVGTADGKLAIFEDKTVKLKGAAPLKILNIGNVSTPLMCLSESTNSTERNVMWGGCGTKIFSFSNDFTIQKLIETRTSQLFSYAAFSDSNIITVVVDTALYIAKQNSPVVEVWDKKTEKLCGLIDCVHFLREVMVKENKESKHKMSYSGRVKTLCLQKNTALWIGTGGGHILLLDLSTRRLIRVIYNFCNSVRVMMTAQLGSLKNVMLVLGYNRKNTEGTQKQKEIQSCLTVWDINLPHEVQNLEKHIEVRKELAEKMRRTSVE
Method: (§1) Cells were plated at a density of 0.3 × 10^6 cells in a 6-well dish and treated at ~40–50% confluency. At the time of harvest, cells were collected and either protein collected or DNA extracted as described below.
For LRRK2-WT or G2019S-LRRK2, ~1.5 million cells were pelleted and resuspended in 75 μl of lysis buffer [(RIPA Buffer (Sigma-Aldrich, R0278-50ML), protease inhibitor cocktail (Sigma-Aldrich, P8340), and Halt phosphatase inhibitor cocktail (Thermo Fisher, 78420)]. For LCLs, five million cells were pelleted and resuspended in 100 µl of lysis buffer. For both types of cells lysates were centrifuged at 10,000 × g after a 10 min incubation on ice, and the supernatant was collected. Protein was quantified using the DC protein assay (Bio-Rad, 5000112). In total, 50 μg of protein was loaded for HEK293 LRRK2-WT or G2019S-LRRK2 cells. Due to the differing endogenous LRRK2 levels, 40 µg of ND02559, 60 µg of ND00264, or 100 µg of ND00011 and ND01618 of protein sample was loaded. Protein samples were incubated at 100 °C for 5 min with NuPAGE Sample loading dye (Thermo Fisher, NP0007) and dithiothreitol as reducing agent. After 4–20% SDS-PAGE, the blots were blocked in 5% w/v nonfat dry milk in 1X PBST (0.05% Tween 20). For our investigations, the following primary antibodies were used: mouse anti-LRRK2 N241a (Antibodies INC, 75-253, 1:5000 for HEK293 cells and 1:2000 for LCLs), rabbit anti-LRRK2 pS935 (Abcam, ab133450, 1:10,000 for HEK293 cells and 1:2000 for LCLs), mouse anti-β-actin (Novus, 8H10D10, 1:10,000), and rabbit anti-LRRK2 pS1292 (Abcam, ab203181, 1:500). The blots were then probed with fluorescent-labeled secondary antibodies, IRDye donkey anti-mouse and anti-rabbit at 1:10,000 (LI-COR, 926-32212, 926-68072), and scanned using an Odyssey Imaging scanner (LI-COR). Fluorescence intensities were quantified using ImageStudio Lite software (LI-COR), and the signal from the protein of interest was normalized to the fluorescence intensity of either LRRK2 or β-actin. Values were averaged from at least three technical replicates within a cell line, or two biological replicates (two healthy control lines and two PD LCLs). All blots were derived from the same experiment and processed in parallel.

human LRRK2 (WT-LRRK2) = biological target: T2, human LRRK2 (WT-LRRK2) (Homo sapiens, UniProt Q5S007); assay: LRRK2 pSer935 quantitative western immunoblot in HEK293 cells stably overexpressing WT-LRRK2; type: cell-based
T2 construct: WT-LRRK2 or G2019S-LRRK2 overexpressing cells show expression of LRRK2 pSer1292 and full-length LRRK2; expressed in transfected cells
Method: as §1
For LRRK2-WT or G2019S-LRRK2, ~1.5 million cells were pelleted and resuspended in 75 μl of lysis buffer [(RIPA Buffer (Sigma-Aldrich, R0278-50ML), protease inhibitor cocktail (Sigma-Aldrich, P8340), and Halt phosphatase inhibitor cocktail (Thermo Fisher, 78420)]. For LCLs, five million cells were pelleted and resuspended in 100 µl of lysis buffer. For both types of cells lysates were centrifuged at 10,000 × g after a 10 min incubation on ice, and the supernatant was collected. Protein was quantified using the DC protein assay (Bio-Rad, 5000112). In total, 50 μg of protein was loaded for HEK293 LRRK2-WT or G2019S-LRRK2 cells. Due to the differing endogenous LRRK2 levels, 40 µg of ND02559, 60 µg of ND00264, or 100 µg of ND00011 and ND01618 of protein sample was loaded. Protein samples were incubated at 100 °C for 5 min with NuPAGE Sample loading dye (Thermo Fisher, NP0007) and dithiothreitol as reducing agent. […] Fluorescence intensities were quantified using ImageStudio Lite software (LI-COR), and the signal from the protein of interest was normalized to the fluorescence intensity of either LRRK2 or β-actin. […]

SMILES	impaired mitophagy and other mitochondrial parameters (R1441C LRRK2 cultures)	mtDNA damage [1]	basal levels of mitophagy (wild-type HEK293 cells)	FCCP-stimulated mitophagy (wild-type HEK293 cells)	brain penetration [2]	IC50 ([3]; G2019S-LRRK2 HEK293 cells, 2 h treatment, read-out: calculated IC50 of LRRK2 pSer1292)	decrease in LRRK2 pSer1292 levels ([3]; 10 nM)	decrease in LRRK2 pSer1292 levels ([3]; 10 nM, listed as EB-42618)	decrease in LRRK2 pSer1292 levels ([3]; 100 nM)	IC50 (human LRRK2 (WT-LRRK2); WT LRRK2 HEK293 cell line, 2 h treatment, 10 nM-1 μM titration, read-out: calculated half-maximal inhibition (IC50) of LRRK2 pSer935)	effect on LRRK2 pSer935 over the concentration range (in words) (human LRRK2 (WT-LRRK2); WT-LRRK2 cells, 10 nM up to 1 μM, 2 h)
C[C@@H]1CN(c2cc(-c3n[nH]c4ccc(OC5(C)CC5)cc34)ncn2)C[C@H](C)O1 [MLi-2, reference compound]	not corrected	restored mtDNA damage to healthy control levels	did not impact	blocked	–	–	–	–	–	–	–
CC1=C(C(=O)Nc2ccc3[nH]nc(-c4ccnc(N5CCOCC5)c4)c3c2)C(C)(C)n2nnnc2N1C [EB-42168]	–	–	did not impact	blocked	poorly brain penetrant	44 nM	30%	dephosphorylated	~ 70% and 65%	> 5 µM	no inhibition; also recorded: no change; also recorded: no detectable effect
